Laboratory results reported in patent US20180172678A1, “Dynamic Light Scattering Nanoplatform For High-Throughput Drug Screening” (Agency for Science, Technology and Research, priority 2016, published 2018).
*1 amine or outer side, *2 acyl side, *3 side chain or, on linkers, in order; H or OH if unused. Where a SMILES comes first, the peptide text is derived from it. Bridges are numbered along the chain shown (N, C = ends). Roman numbers before positions name the chains, in order. [ ]: non-standard residue; d: D form. Actinocin(9to1) = Cc1c2oc3c(C)ccc(C(=O)[*:1])c3nc-2c(C(=O)[*:2])c(N)c1=O; NMeV = CN[C@H](C(=O)O)C(C)C; Sar = CNCC(=O)O

Assays:
wildtype p53 = experiment: DLS detection with PUMA-AuNP nano-dumbbell probes of wtp53-RE binding in anticancer drug treated PonA induced H1299 cell lysates; assay type: cell-based; conditions: drug-treated PonA induced p53 H1299 cell lysate, versus untreated lysate
Text: To investigate the applicability of the assay in accordance with the present embodiment to cell lysates, the H1299 Ecdysone-Inducible (EI) system for controllable and constitutive expression of p53 in H1299 cells induced by ponasterone A (PonA) was used. Referring to FIG. 7, bar graphs 700, 750 depict cell lysate analysis statistics in accordance with the present embodiment. The bar graph 700 plots size along the y-axis 704 and depicts wildtype p53 cell lysate 710 and three mutant p53 cell lysates: G245S 712, R273H 714 and R175H 716. The p53 null cell lysate (EI) 718, which serves as a negative control, gives negligible size shift from that of the PUMA-AuNP nano-dumbbell probes 720. Remarkably, clear distinctions between cell lysates with wtp53 710 and the DNA contact mutant retaining native structure (R273H) 714, the weakly stabilized mutant (G245S) 712 and the globally denatured mutant (R175H) 716 can be observed in the bar graph 700. Thus, it can be seen from the analytical results in the graph 700 that the bioassay in accordance with the present embodiment is not only sensitive and selective in the context of purified proteins but also applicable to highly complex biological samples.
Referring to FIG. 7B, the bar graph 750 plots size along the y-axis 754 and depicts detection of wildtype p53 in PonA induced p53 cell lysates 760 versus a […] cell lysate (EI) 762 (used together with the PUMA-AuNP nano-dumbbell probes 763 as a negative control), and an anticancer drug including ActD-treated 764, Dox-treated 766, and Etoposide-treated cell lysate 768.

wtp53 in HCT116 cells = experiment: DLS detection with PUMA-AuNP nano-dumbbell probes of wtp53 expression level in drug treated HCT116 cell lysates; assay type: cell-based; conditions: HCT116 cell lysate after Mdm2 inhibitor treatment, mixed with PUMA-AuNP probes
Text: Referring to FIG. 8, detection of wtp53 expression level in drug treated HCT116 cell lysates in accordance with the present embodiment is depicted in a bar graph 800. Besides the H1299 Ecdysone-Inducible cell lines, the effect of Mdm2 inhibitors such as nutlin 810, pm2 812, and vip82 814 on HCT116 cells was investigated. These inhibitors could inhibit Mdm2 targeted wtp53 degradation so that the wtp53 protein level in the HCT116 cell lysate will increase with the concentration of the drug applied. […] However, the extent of size increase is not as high as what was observed upon anticancer drug treatment presented. One possible explanation is that PUMA-AuNP nano-dumbbell probes are sensitive to detect activated wtp53 with enhanced binding to RE, whereas the over-expression of wtp53 may not enhance DNA binding.

mutant p53 (R175H) = biological target: T1, mutant p53 (R175H) (Homo sapiens, UniProt P04637, R175H); experiment: Mutant p53 reactivation drug screening in PonA induced H1299 cells, DLS with PUMA-AuNP nano-dumbbell probes; assay type: cell-based
T1 construct: expressed in transfected cells; host or cells: PonA induced H1299 cells
Experimental: (§1) The ability to clearly distinguish wildtype p53 from mutant p53 in cell lysates provides the potential of the assay in accordance with the present embodiment for screening drugs that can effectively reactivate mutant p53 directly in cells and recovered the biological samples from cell lysates for detection. FIG. 9 depicts a schematic diagram 900 showing the process of mutant reactivation drug screening. Incubation of drug with live cancer cells expressing mutant p53 for reactivation is performed 910 (Step 1). The drug treated cells are then chemically lysed 920 (Step 2). The resultant cell lysates are next subjected 930 to incubation with p53-RE functionalized AuNP nano-dumbbell probes (Step 3). The obtained DLS readout allow evaluation of whether the drug applied has successfully reactivated mutant p53 to restore its binding affinity to RE. Failure in p53 reactivation will give rise to no change in the position of the DLS signal in accordance with the present embodiment.
(§2) Referring back to Step 1, drugs to be tested are first incubated 912 with live cancer cells expressing mutp53 proteins. Drugs are then uptaken 914 by the cells and interact with the mutp53 proteins. The drug treated cancer cells are subsequently lysed at Step 2 (920) to obtain crude cell lysates. These cell lysates are incubated with RE-AuNP probes and DLS is finally employed to evaluate the efficiency of mutp53 reactivation 932. If the reactivation is successful 934, the reactivated p53 protein will have a restored binding toward the RE, thus leading to increase in the diameter of the p53 RE-AuNP probes as measured 936 by DLS. In contrast, failure in reactivation 938 will not restore the binding of mutp53 protein to the RE sequence on the nano-dumbbell probes, thus no change in DLS signal is measured 940. Thus, the bioassay in accordance with the present embodiment is able to evaluate the extent of mutant reactivation by comparing the DLS signal obtained with the wtp53 binding to RE. The effective concentration of drugs for reactivation can also be determined by performing a series of concentration-dependent experiments during cell reactivation
The bar graphs 1000, 1050 plot particle size along the y-axis 1004, 1054 and depict screening of mutant reactivation drugs.

mutant p53 (R273H) = biological target: T2, mutant p53 (R273H) (Homo sapiens, UniProt P04637, R273H); experiment: as above; assay type: cell-based
T2 construct: expressed in transfected cells; host or cells: PonA induced H1299 cells
Experimental: as §1, §2
However, the NSC drug has no effect at either low concentrations 1068 or high concentrations 1070 due to its specificity only to R175H mutant.

p53 = p53 (Homo sapiens, UniProt P04637); experiment: Dissociation constant (KD) of p53 for DNA promoter sequences (Table 1); assay type: binding; conditions: concentration of p53 for 50% of the DNA to be bound; free dsDNA sequence
Text: As aforestated, the p53 protein is a transcription factor which will bind specifically to DNA that contains RE sequences. In nature, wildtype p53 protein will bind to many promoter sequences and subsequently activate a wide range of genes for DNA repair, cell cycle arrest, apoptosis and its own degradation. As shown hereinabove, the bioassay in accordance with the present embodiment can be used for DNA selectivity study by conjugating different RE sequences to the AuNPs. However, it would be technically tedious to carry out conjugation for each DNA sequence and then screen for the binding affinity of a large number of promoter sequences. Therefore, a convenient competition assay which requires only one set of p53 RE-linked AuNPs has been designed in accordance with the present embodiment to evaluate the binding affinity of p53 protein to various promoter sequences listed in Table 1. This competition assay further allows the identification of the specific downstream pathway that is triggered upon p53 activation or reactivation, providing crucial information on the drug validation and outcome of the drug action.
The dissociation constant (KD) is defined as the concentration of p53 for 50% of the DNA to be bound. The lower the KD value, the stronger the binding affinity between wtp53 and the tested free DNA sequence. Thus, a smaller change in the size of the complex bound probes is expected due to the competitive binding of wtp53 between the free DNAs and conjugated RE sequences on AuNPs. […] Application of this assay to the activated or reactivated p53 proteins enables determination of which promoter sequence binds strongly and consequently identifies its downstream targets (apoptosis, cell cycle arrest or DNA repair).

[1] = high concentrations (++): COTI-2 1 μM, Prima-1^met 20 μM, NSC 3 μM
[2] = low concentrations (+): NSC 0.3 μM

Row | Molecule | activation of wtp53 binding to the RE (DLS particle diameter of PUMA-AuNP probes) (wildtype p53) | reactivation of mutant p53 (R175H) to bind with PUMA-AuNP probes (mutant p53 (R175H); [1]) | reactivation of mutant p53 (R175H) to bind with PUMA-AuNP probes (mutant p53 (R175H); [2]) | reactivation of mutant p53 (R273H) to bind with PUMA-AuNP probes (mutant p53 (R273H); [1]) | reactivation of mutant p53 (R273H) to bind with PUMA-AuNP probes (mutant p53 (R273H); [2]) | Kd (p53) [nM] | further results
1 | COc1cccc2c1C(=O)c1c(O)c3c(c(O)c1C2=O)C[C@@](O)(C(=O)CO)C[C@@H]3O[C@H]1C[C@H](N)[C@H](O)[C@H](C)O1 [Dox, doxorubicin] | larger diameter | – | – | – | – | – | –
2 | COc1ccc(C2=NC(c3ccc(Cl)cc3)C(c3ccc(Cl)cc3)N2C(=O)N2CCNC(=O)C2)c(OC(C)C)c1 (stereo not shown) [nutlin] | – | – | – | – | – | – | wtp53 level in cell lysate detected by DLS size increase (wtp53 in HCT116 cells): increased wtp53 level
3 | S=C(N/N=C1\CCCc2cccnc21)N1CCN(c2ccccn2)CC1 [COTI-2] | – | successful reactivation | not at low concentrations | successful reactivation | not at low concentrations | – | –
4 | GADD45: p53 promoter dsDNA sequence, gene function DNA repair (sense ATCATGAACATGTCTAAGCATGCTGAGCTC; antisense GAGCTCAGCATGCTTAGACATGTTCATGAT; DNA, backbone not given here) | – | – | – | – | – | 7.7 ± 1.2 | –
5 | COCC1(CO)C(=O)C2CCN1CC2 (stereo not shown) [Prima-1^met] | – | successful reactivation | not at low concentrations | successful reactivation | not at low concentrations | – | –
6 | CC(=NNC(=S)N1CC2CCC(CC2)C1)c1ccccn1 [NSC] | – | shows effect | shows effect | no effect | no effect | – | –
7 | COc1cc([C@@H]2c3cc4c(cc3[C@@H](O[C@@H]3O[C@@H]5CO[C@@H](C)O[C@H]5[C@H](O)[C@H]3O)[C@H]3COC(=O)[C@H]23)OCO4)cc(OC)c1O [Etoposide, etoposide] | larger diameter | – | – | – | – | – | –
8 | Cc1c2oc3c(C)ccc(C(=O)N[C@@H]4C(=O)N[C@H](C(C)C)C(=O)N5CCC[C@H]5C(=O)N(C)CC(=O)N(C)[C@@H](C(C)C)C(=O)O[C@@H]4C)c3nc-2c(C(=O)N[C@@H]2C(=O)N[C@H](C(C)C)C(=O)N3CCC[C@H]3C(=O)N(C)CC(=O)N(C)[C@@H](C(C)C)C(=O)O[C@@H]2C)c(N)c1=O [ActD, actinomycin D] (I: T[dV]P[Sar][NMeV] / II: T[dV]P[Sar][NMeV]; ester I:1-I:C, II:1-II:C; linker I:N-II:N via Actinocin(9to1)) | larger diameter | – | – | – | – | – | –
9 | Bax a: p53 promoter dsDNA sequence, gene function apoptosis (sense TCATTCACAAGTTAGAGACAAGCCTAGCTC; antisense GAGCTAGGCTTGTCTCTAACTTGTGAATGA; DNA, backbone not given here) | – | – | – | – | – | 73 ± 33 | –
10 | ConA: Artificial consensus p53-binding dsDNA sequence; positive control (nucleic acid, chemistry not given here; one strand is listed 3' to 5', positive control) sense: GTTAGAGGGGCATGTCCGGGCATGTCCGGGCAGA antisense: CAATCTCCCCGTACAGGCCCGTACAGGCCCGTCT | – | – | – | – | – | 3 | –
